Source: patent publication US20090088380A1, “GHRH ANALOGS AND THERAPEUTIC USES THEREOF” (priority 2007, published 2009)
Where two headings read alike, the source gives them in different places. Non-standard residues stand in square brackets, D forms with d. Residues, ends and D or L forms follow the SMILES beside them. No end group written: not given here.

Legend:
[1] = In vitro proteolysis assay in rat serum; format: in vitro ADME; conditions: for Relative resistance to proteolysis in vitro: compared to hGHRH(1-29)-NH2; for Residual concentration (% of initial concentration): incubation 0 min
Procedure: Proteolysis was stopped by adding 800 μl of ice-cold stop buffer (potassium-phosphate buffer, acidified to pH 0.8 with trifluoroacetic acid (TFA) and boiling 5 min (rat serum only). After centrifugation (12000 g, 5 min, 4° C.) (rat serum only), serum-peptide mixtures were passed through a conditioned Sep-Pak C-18 cartridge to extract native GHRH or a GHRH analog residual concentrations from serum proteins. The native GHRH or the analog was eluted in 2 ml of 50% acetonitrile-0.01% TFA/50% 0.01% aqueous TFA. 200 μl of extracted peptide, representing 1 μg of GHRH or analog at time 0, was quantified by analytical HPLC, using one μ-Bondapak C18 column (10 μm particle size, 0.39×15 cm) (rat serum) or two C18 columns in series (human serum and plasma) and a binary solvent system composed of NaClO4 0.01 M, pH 2.5 and acetonitrile. A linear gradient from 30 to 60% acetonitrile over 45 min (rat serum) or 30 to 50% (human serum and plasma) was used. Elution of intact peptide was monitored at 214 nm and residual concentration determined by assessment of peak surface areas.

[2] = target: T1, hGHRH(1-44)-NH2 binding sites in rat anterior pituitary (Rattus norvegicus, UniProt Q02644); assay: Relative binding affinity in rat anterior pituitary preparations, [125I-Tyr10]hGHRH(1-44)-NH2 radioligand; conditions: values compared to hGHRH(1-29)-NH2
T1 construct: from tissue; host or cells: anterior pituitary of 2-month old male Sprague Dawley rats
T1 sequence (Q02644 23-423 isoform Q02644-2 limits assumed): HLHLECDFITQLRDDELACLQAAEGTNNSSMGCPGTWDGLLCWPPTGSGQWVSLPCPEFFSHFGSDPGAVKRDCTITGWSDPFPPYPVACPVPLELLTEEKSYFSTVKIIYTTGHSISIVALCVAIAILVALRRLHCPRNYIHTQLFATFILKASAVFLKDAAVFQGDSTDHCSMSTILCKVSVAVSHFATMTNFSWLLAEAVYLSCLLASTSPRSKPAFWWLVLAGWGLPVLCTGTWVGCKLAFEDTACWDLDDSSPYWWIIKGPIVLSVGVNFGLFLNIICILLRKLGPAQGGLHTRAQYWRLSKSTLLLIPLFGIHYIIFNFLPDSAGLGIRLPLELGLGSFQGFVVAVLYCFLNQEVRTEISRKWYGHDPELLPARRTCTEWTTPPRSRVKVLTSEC
From the text: Initial selection of a candidate from the original 14 polysubstituted GHRH analogs described in the U.S. Pat. No. 5,854,216 was based upon in vitro data on receptor affinity in 2-month old male Sprague Dawley rat anterior pituitary preparations. The embodiments are based on the affinity of selected GHRH analogs for the human GHRH receptor (hGHRH-R) in baby hamster kidney (BHK) cells transfected with hGHRH-R, and on resistance to proteolysis in rat serum, human plasma or human serum. More precisely, the preferred drug candidates were selected, as compared to hGHRH(1-29)-NH2, for: i-their increased relative binding affinity to hGHRH(1-44)-NH2 binding sites in rat anterior pituitary in vitro as well as to hGHRH-R in BHK-expressing cells in vitro; and ii-their relative resistance to proteolysis in vitro.

human GHRH receptor = target: T2, human GHRH receptor (Homo sapiens, UniProt Q02643); assay: 125I-GHRH competitive binding assay in BHK cell membrane preparations; conditions: in comparison with hGHRH(1-29)NH2; ratio IC50 hGHRH(1-29)-NH2/IC50 analog
T2 construct: expressed in transfected cells; host or cells: BHK (baby hamster kidney) 570 cells, membrane preparations
T2 sequence (Q02643 23-423): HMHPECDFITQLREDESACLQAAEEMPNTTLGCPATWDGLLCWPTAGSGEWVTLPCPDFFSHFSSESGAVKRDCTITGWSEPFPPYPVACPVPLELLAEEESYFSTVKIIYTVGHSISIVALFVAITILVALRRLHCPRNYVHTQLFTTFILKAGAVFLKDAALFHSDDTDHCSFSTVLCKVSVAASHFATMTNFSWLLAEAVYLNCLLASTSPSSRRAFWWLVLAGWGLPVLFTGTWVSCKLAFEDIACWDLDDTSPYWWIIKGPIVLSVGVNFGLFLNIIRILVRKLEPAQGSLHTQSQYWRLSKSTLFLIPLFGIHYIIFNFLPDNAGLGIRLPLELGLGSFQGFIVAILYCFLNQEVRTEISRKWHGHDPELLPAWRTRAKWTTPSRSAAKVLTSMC
Procedure: Non specific binding was determined in presence of 1 μM hGHRH(1-29)NH2. Incubation was carried out at equilibrium (23° C., 60 min) and stopped by centrifugation (12,000 g, 5 min, at 4° C.). The radioactivity content in pellets was determined by gamma counting. The affinity of hGHRH(1-29) NH2 was tested in each experiment to assess the validity of the assay and determine the relative affinity of the analogs.
Values represent the mean±SEM of 3 experiments performed in triplicate for the analogs and the mean±SEM of 2 experiments performed in triplicate for hGHRH(1-44) NH2.
For the binding assay results presented in Tables 8 to 11, values represent the mean±SEM of 8 independent experiments performed in triplicate for the analogs and the mean±SEM of 4 experiments performed in triplicate for hGHRH(1-29)NH2. […] The relative affinity was obtained by taking the ratio IC50 of hGHRH (1-29)-NH2/IC50 analog.

[3] = target: human GHRH receptor (human) (UniProt Q02643); assay: competition with [125I-Tyr10]hGHRH(1-44)NH2, BHK cell membrane preparations expressing the human GHRH receptor
rat GHRH receptor (rat) = rat GHRH receptor (rat) (UniProt Q02644); assay: competition with [125I-Tyr10]hGHRH(1-44)-NH2, rat anterior pituitary membrane preparations
[4] = target: human GHRH receptor (human) (UniProt Q02643); assay: competition with [125I-Tyr10]hGHRH(1-44)NH2, BHK cell membrane preparations expressing the human GHRH receptor; remark: listed apart in the source

| Relative resistance to proteolysis in vitro [1] | Residual concentration (% of initial concentration) [1] | Relative binding affinity in rat anterior pituitary [2] | Relative binding affinity (R1) in hGHRH-R BHK-expressing cells (human GHRH receptor) | IC50 [3] | Relative binding affinity (R1) in comparison with hGHRH(1-29)NH2 ([3]; scale: ratio IC50 of hGHRH) | Relative binding affinity in rat anterior pituitary (relative to hGHRH(1-29)-NH2) (rat GHRH receptor (rat)) | IC50 [4] | Molecule |
| --- | --- | --- | --- | --- | --- | --- | --- | --- |
| 6.06 | 100 ± 0 % of initial concentration | 5.00 ± 0.91 | 0.05 ± 0.01 | – | – | – | – | CC[C@H](C)[C@H](NC(=O)[C@H](C)NC(=O)[C@H](CC(=O)O)NC(=O)[C@@H](C)NC(=O)[C@@H](N)Cc1ccc(O)cc1)C(=O)N[C@@H](Cc1ccccc1)C(=O)N[C@H](C(=O)N[C@@H](C)C(=O)N[C@@H](CO)C(=O)N[C@H](Cc1ccc(O)cc1)C(=O)N[C@@H](CCCNC(=N)N)C(=O)N[C@@H](CCCCN)C(=O)N[C@H](C(=O)N[C@@H](CC(C)C)C(=O)N[C@@H](C)C(=O)N[C@@H](CCC(N)=O)C(=O)N[C@@H](CC(C)C)C(=O)N[C@@H](CO)C(=O)N[C@@H](C)C(=O)N[C@@H](CCCNC(=N)N)C(=O)N[C@H](CCCCN)C(=O)N[C@@H](CCCCN)C(=O)N[C@@H](CC(C)C)C(=O)N[C@@H](CCC(N)=O)C(=O)N[C@@H](CC(=O)O)C(=O)N[C@H](C(=O)N[C@@H](CCSC)C(=O)N[C@@H](CO)C(=O)N[C@@H](CCCNC(=N)N)C(N)=O)[C@@H](C)CC)C(C)C)[C@@H](C)O [GHRH analog #4, [D-Ala^2, Ala^8, D-Tyr^10, Ala^15, D-Lys^21, Lys^22] hGHRH(1-29)-NH2] (H-Y[dA]DAIFTAS[dY]RKVLAQLSAR[dK]KLQDIMSR-NH2; N-terminus assumed) |
| 1.87 | 100 ± 0 % of initial concentration | 13.33 ± 0.31 | 499 ± 234 | – | – | – | – | CC[C@H](C)[C@H](NC(=O)[C@H](C)NC(=O)[C@H](CC(=O)O)NC(=O)[C@@H](C)NC(=O)[C@@H](N)Cc1ccc(O)cc1)C(=O)N[C@@H](Cc1ccccc1)C(=O)N[C@H](C(=O)N[C@@H](C)C(=O)N[C@@H](CO)C(=O)N[C@@H](Cc1ccc(O)cc1)C(=O)N[C@@H](CCCNC(=N)N)C(=O)N[C@@H](CCCCN)C(=O)N[C@H](C(=O)N[C@@H](CC(C)C)C(=O)N[C@@H](C)C(=O)N[C@@H](CCC(N)=O)C(=O)N[C@@H](CC(C)C)C(=O)N[C@@H](CO)C(=O)N[C@@H](C)C(=O)N[C@@H](CCCNC(=N)N)C(=O)N[C@@H](CCCCN)C(=O)N[C@@H](CCCCN)C(=O)N[C@@H](CC(C)C)C(=O)N[C@@H](CCC(N)=O)C(=O)N[C@@H](CC(=O)O)C(=O)N[C@H](C(=O)N[C@@H](CCSC)C(=O)N[C@@H](CO)C(=O)N[C@@H](CCCNC(=N)N)C(N)=O)[C@@H](C)CC)C(C)C)[C@@H](C)O [GHRH analog #1, [D-Ala^2, Ala^8, Ala^15, Lys^22] hGHRH(1-29)-NH2] (H-Y[dA]DAIFTASYRKVLAQLSARKKLQDIMSR-NH2; N-terminus assumed) |
| – | – | – | – | 6 pM | 939 | 1.04 | 1.2 pM | [D-Ala2, D-Tyr10, D-Ala15, Lys22] hGHRH(1-29)-NH2 (peptide) |
| 1.81 | 100 ± 0 % of initial concentration | 7.74 ± 3.49 | 3.70 ± 0.52 | – | – | – | – | YADAIFTAAYRKVLAQLSARKALQDIMSR-NH2 [GHRH analog #2, [Ala^8, Ala^9, Ala^15, Ala^22] hGHRH(1-29)-NH2] |
